Measurements published in paper PMC6608564 (Journal of the Endocrine Society, 2019).
Each block holds one compound with its values, some of them ahead of it.

Legend:
[1] = target: T1, human OXTR (Homo sapiens, UniProt P30559); test: FLIPR calcium assay, AV12 cells stably expressing human OXTR; format: cell-based; details: Fig. 1 and Dryad data [67]; for receptor selectivity against vasopressin receptors (in words): OXTR vs V1a, V1b (FLIPR) and V2 (cAMP); for OXTR activity / potency (in words): in vitro OXTR assay
T1 sequence (P30559 1-389): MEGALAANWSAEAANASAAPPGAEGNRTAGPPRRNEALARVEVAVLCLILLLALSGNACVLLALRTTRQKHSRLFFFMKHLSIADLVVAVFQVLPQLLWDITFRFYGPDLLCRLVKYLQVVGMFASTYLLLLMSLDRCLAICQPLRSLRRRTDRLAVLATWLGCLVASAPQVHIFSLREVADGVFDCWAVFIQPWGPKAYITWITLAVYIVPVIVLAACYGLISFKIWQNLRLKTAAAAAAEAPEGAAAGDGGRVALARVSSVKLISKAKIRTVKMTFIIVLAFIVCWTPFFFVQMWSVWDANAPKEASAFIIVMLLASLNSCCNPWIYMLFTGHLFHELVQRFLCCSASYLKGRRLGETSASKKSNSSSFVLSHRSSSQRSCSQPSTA

[2] = Food intake study with free-hand ICV injection; format: in vivo, male C57BL/6 mice; details: 3 μg per mouse ICV
[3] = Chronic OXT analog treatment in DIO mice; format: in vivo, C57BL/6 DIO mice; details: vs vehicle
[4] = Pharmacokinetic measurement by mass spectrometry in mice; format: in vivo, C57BL/6 mice
[5] = Rat blood pressure telemetry; format: in vivo, DIO male Long-Evans rats; details: IP 0.3, 1, 3 mg/kg, DIO Long-Evans rats
[6] = Acute food intake study; format: in vivo, male C57BL/6 mice; details: conivaptan 0.5 mg/kg IP coadministered with OXT 2 mg/kg IP, Fig. 3F
[7] = C57BL/6, mouse, plasma, ip, 1 mg/kg

- OXTR activity / potency (in words) [1]: without affecting OXTR activation
Compound: carbetocin [OXT^Butyryl]
- receptor selectivity against vasopressin receptors (in words) [1]: increased receptor selectivity against vasopressin receptors

- behavior during first hour after ICV injection (vocalization, grooming) [2]: clinical signs of behavioral distress
- serum potassium level [3]: significantly lower
- time until plasma level dropped below detection ([4]; 1 mg/kg IP, single dose, Fig. 2A): < 3 h
- Tmax [4, 7]: ~30 min
- half-life [4, 7]: < 30 min
Compound: CC[C@H](C)[C@@H]1NC(=O)[C@H](Cc2ccc(O)cc2)NC(=O)[C@@H](N)CSSC[C@@H](C(=O)N2CCC[C@H]2C(=O)N[C@@H](CC(C)C)C(=O)NCC(N)=O)NC(=O)[C@H](CC(N)=O)NC(=O)[C@H](CCC(N)=O)NC1=O [OXT, oxytocin]
- mean arterial pressure (MAP) [5]: dose-dependently caused a statistically significant increase of MAP

- receptor selectivity against vasopressin receptors (in words) [1]: high degree of OXTR selectivity
Compound: TC OT39
- OXTR activity / potency (in words) [1]: significantly decreased potency (EC50) and efficacy (Emax)

Compound: Cc1nc2c([nH]1)-c1ccccc1N(C(=O)c1ccc(NC(=O)c3ccccc3-c3ccccc3)cc1)CC2 [conivaptan]
- effect on OXT-induced food intake suppression [6]: abolished OXT’s effect on food intake suppression
